Assay results from patent US20180170942A1, “POLYCYCLIC DERIVATIVES TARGETING RAL GTPASES AND THEIR THERAPEUTICAL APPLICATIONS” (NANTBIO, INC., priority 2015, published 2018).

System: MiaPaCa2 pancreatic cell line
Assay: not given
Conditions: inhibitory effects were modest; cited from earlier work
In the case of `COC(=O)[C@H](CC(C)C)NC(=O)N1CCN(Cc2nc[nH]c2C)C(=O)[C@@H]1Cc1ccccc1` [GGTI-2417], the “inhibition of in vitro growth and survival” value is given as “inhibit the in vitro growth and survival”.

System: H2122 human lung cancer cells
Assay: In vitro growth inhibition of human cancer cells under anchorage-independent conditions in soft agar (colony count)
Type: cell-based
Conditions: NCI-H2122, 336 h, 50% reduction in colony number vs DMSO controls, two weeks incubation, MTT stain
Method: In vitro growth inhibition of human cancer cells: Growth inhibition of human lung cancer cells by the compounds was measured under anchorage-independent conditions in soft agar. H2122 human lung cancer cells were seeded into 6-well plates (coated with a base layer made of 2 ml of 1% low-melting-point agarose) at 15,000 cells per well in 3 ml of 0.4% low-melting-point agarose containing various concentration of drug. Two weeks after incubation, cells were stained with 1 mg/ml MTT and colonies were counted under a microscope. […] Data are analyzed using Excel (Microsoft), and IC50 values are determined using Prism (Graphpad). The results of the in vitro H2122 growth inhibition activity of the representative compounds of the present invention are shown in the following Table: […]
With `CCCc1n[nH]c2c1C(c1cc(Cl)cc(Cl)c1O)C(C#N)=C(N)O2` (stereo not drawn) [Compound 1] the IC50 was 2210 nM. In the case of `CCCc1n[nH]c2c1C(c1cc(OC)ccc1OC)C(C#N)=C(N)O2` (stereo not drawn) [Compound 2], the IC50 is reported as 3560 nM. Compound `CCCc1n[nH]c2c1C(c1ccc3ccccc3c1)C(C#N)=C(N)O2` (stereo not drawn) [Compound 3] has an IC50 of 3720 nM. `CCCc1nn(C)c2c1C(c1cc(Cl)cc(Cl)c1O)C(C#N)=C(N)O2` (stereo not drawn) [Compound 4] gave an IC50 of 1590 nM. Work on `CCCc1nn(C)c2c1C(c1cc(OC)ccc1OC)C(C#N)=C(N)O2` (stereo not drawn) [Compound 5] yielded an IC50 of 3860 nM. With `Cc1n[nH]c2c1C(c1ccc(OC(F)(F)F)cc1)C(C#N)=C(N)O2` (stereo not drawn) [Compound 7] the IC50 was 3210 nM. `COc1cc(OC)c(C2C(C#N)=C(N)Oc3[nH]nc(C)c32)c(OC)c1` (stereo not drawn) [Compound 8] gave an IC50 of 3280 nM. `Cc1n[nH]c2c1C(c1ccc(C(F)(F)F)cc1)C(C#N)=C(N)O2` (stereo not drawn) [Compound 9] gave an IC50 of 5050 nM. With `Cc1n[nH]c2c1C(c1ccc(-n3ccnc3)cc1)C(C#N)=C(N)O2` (stereo not drawn) [Compound 10] the IC50 was 900 nM. Work on `COc1cccc(OC)c1C1C(C#N)=C(N)Oc2c1c(C)nn2C` (stereo not drawn) [Compound 11] yielded an IC50 of 2190 nM. Work on `Cc1nn(C)c2c1C(c1ccc(-c3ccccc3)cc1)C(C#N)=C(N)O2` (stereo not drawn) [Compound 12] yielded an IC50 of 4000 nM. With `COc1cc(C2C(C#N)=C(N)Oc3c2c(C)nn3C)ccc1C(F)(F)F` (stereo not drawn) [Compound 13] the IC50 was 2990 nM. `Cc1nn(C)c2c1C(c1cccc(-c3cncnc3)c1)C(C#N)=C(N)O2` (stereo not drawn) [Compound 14] gave an IC50 of 5050 nM. In the case of `COc1cc(C(F)(F)F)ccc1C1C(C#N)=C(N)Oc2c1c(C)nn2C` (stereo not drawn) [Compound 15], the IC50 is reported as 1710 nM. Work on `Cc1nn(C)c2c1C(c1ccc(-n3ccnc3C)cc1)C(C#N)=C(N)O2` (stereo not drawn) [Compound 16] yielded an IC50 of 1020 nM. In the case of `Cn1nc(C(C)(C)C)c2c1OC(N)=C(C#N)C2c1ccc(-n2ccnc2)cc1` (stereo not drawn) [Compound 17], the IC50 is reported as 1350 nM. In the case of `Cn1nc(C2CCCC2)c2c1OC(N)=C(C#N)C2c1ccc(-n2ccnc2)cc1` (stereo not drawn) [Compound 18], the IC50 is reported as 1280 nM. Compound `Cn1nc(-c2cc3ccccc3o2)c2c1OC(N)=C(C#N)C2c1ccc(-n2ccnc2)cc1` (stereo not drawn) [Compound 20] has an IC50 of 490 nM. `Cn1nc(Cc2ccccc2)c2c1OC(N)=C(C#N)C2c1ccc(-n2ccnc2)cc1` (stereo not drawn) [Compound 21] gave an IC50 of 890 nM. Work on `Cn1nc(-c2ccccn2)c2c1OC(N)=C(C#N)C2c1ccc(-n2ccnc2)cc1` (stereo not drawn) [Compound 22] yielded an IC50 of 2040 nM. `Cn1nc(-c2cnccn2)c2c1OC(N)=C(C#N)C2c1ccc(-n2ccnc2)cc1` (stereo not drawn) [Compound 23] gave an IC50 of 1080 nM. For `Cc1nn(C)c2c1C(c1ccc(-c3ncccn3)cc1)C(C#N)=C(N)O2` (stereo not drawn) [Compound 24], the IC50 was 6130 nM. Work on `CC(C)c1nn(C)c2c1C(c1ccc(-n3ccnc3)cc1)C(C#N)=C(N)O2` (stereo not drawn) [Compound 25] yielded an IC50 of 1070 nM. `CC(C)c1nn(C)c2c1C(c1ccc(C(F)(F)F)cc1)C(C#N)=C(N)O2` (stereo not drawn) [Compound 26] gave an IC50 of 2960 nM. With `Cc1nn(C)c2c1C(c1ccc(-n3cnc4ccccc43)cc1)C(C#N)=C(N)O2` (stereo not drawn) [Compound 27] the IC50 was 840 nM. For `Cn1nc(-c2cc3ccccc3o2)c2c1OC(N)=C(C#N)C2c1ccc(C(F)(F)F)cc1` (stereo not drawn) [Compound 28], the IC50 was 3420 nM. `Cn1nc(-c2cc3ccccc3o2)c2c1OC(N)=C(C#N)C2c1ccc(OC(F)(F)F)cc1` (stereo not drawn) [Compound 29] showed an IC50 of 3910 nM. Work on `Cn1nc(-c2cc3ccccc3o2)c2c1OC(N)=C(C#N)C2c1cc(Cl)cc(Cl)c1O` (stereo not drawn) [Compound 30] yielded an IC50 of 1710 nM. Compound `COc1ccc(OC)c(C2C(C#N)=C(N)Oc3c2c(-c2cc4ccccc4o2)nn3C)c1` (stereo not drawn) [Compound 31] has an IC50 of 6210 nM. Work on `Cc1nnc(-c2ccc(C3C(C#N)=C(N)Oc4c3c(C)nn4C)cc2)o1` (stereo not drawn) [Compound 32] yielded an IC50 of 2910 nM. Work on `Cc1nn(C)c2c1C(c1ccc(-n3cncn3)cc1)C(C#N)=C(N)O2` (stereo not drawn) [Compound 33] yielded an IC50 of 2490 nM. Work on `Cc1nn(C)c2c1C(c1ccc(N(C)C)cc1)C(C#N)=C(N)O2` (stereo not drawn) [Compound 34] yielded an IC50 greater than 10000 nM. `CC(=O)Nc1ccc(C2C(C#N)=C(N)Oc3c2c(C)nn3C)cc1` (stereo not drawn) [Compound 35] showed an IC50 of 2780 nM. `Cc1nn(C)c2c1C(c1ccc(N3CCCC3)cc1)C(C#N)=C(N)O2` (stereo not drawn) [Compound 36] showed an IC50 of 8390 nM. Work on `Cc1nn(C)c2c1C(c1ccc(-n3cccc3)cc1)C(C#N)=C(N)O2` (stereo not drawn) [Compound 37] yielded an IC50 of 6020 nM. For `Cc1nn(C)c2c1C(c1ccc(-n3cccn3)cc1)C(C#N)=C(N)O2` (stereo not drawn) [Compound 38], the IC50 was 5750 nM. Compound `Cc1cn(-c2ccc(C3C(C#N)=C(N)Oc4c3c(C)nn4C)cc2)cn1` (stereo not drawn) [Compound 39] has an IC50 of 5110 nM. `Cc1nccn1-c1ccc(C2C(C#N)=C(N)Oc3c2c(-c2cc4ccccc4o2)nn3C)cc1` (stereo not drawn) [Compound 40] showed an IC50 of 1590 nM. Work on `Cn1nc(-c2n[nH]c3ccccc23)c2c1OC(N)=C(C#N)C2c1ccc(-n2ccnc2)cc1` (stereo not drawn) [Compound 41] yielded an IC50 of 1820 nM. `Cc1nn(C(C)(C)C)c2c1C(c1ccc(-n3ccnc3)cc1)C(C#N)=C(N)O2` (stereo not drawn) [Compound 42] showed an IC50 of 1120 nM. `Cc1nn(-c2ccccc2)c2c1C(c1ccc(-n3ccnc3)cc1)C(C#N)=C(N)O2` (stereo not drawn) [Compound 43] showed an IC50 of 700 nM. Work on `Cc1nn(-c2ccc(F)cc2)c2c1C(c1ccc(-n3ccnc3)cc1)C(C#N)=C(N)O2` (stereo not drawn) [Compound 44] yielded an IC50 of 980 nM. In the case of `COc1ccc(-n2nc(C)c3c2OC(N)=C(C#N)C3c2ccc(-n3ccnc3)cc2)cc1` (stereo not drawn) [Compound 45], the IC50 is reported as 1620 nM. With `Cc1nn(-c2ccncc2)c2c1C(c1ccc(-n3ccnc3)cc1)C(C#N)=C(N)O2` (stereo not drawn) [Compound 46] the IC50 was 2080 nM. `COc1ccc(-c2n[nH]c3c2C(c2ccc(-n4ccnc4)cc2)C(C#N)=C(N)O3)cc1` (stereo not drawn) [Compound 47] gave an IC50 of 1320 nM. `COc1ccc(-c2nn(C)c3c2C(c2ccc(-n4ccnc4)cc2)C(C#N)=C(N)O3)cc1` (stereo not drawn) [Compound 48] showed an IC50 of 1320 nM. Work on `COc1ccc(-c2nn(-c3ccccc3)c3c2C(c2ccc(-n4ccnc4)cc2)C(C#N)=C(N)O3)cc1` (stereo not drawn) [Compound 49] yielded an IC50 of 3150 nM.
